ChEMBL document CHEMBL5143732 (J Med Chem, 2022)
Converted amounts (≈) assume the structure as drawn.

Key:
Format in all cases: functional
Candida tropicalis = assay: Antifungal activity against Candida tropicalis assessed as inhibition of fungal growth measured after 48 hrs by CLSI based agar dilution method
Candida parapsilosis = assay: Antifungal activity against Candida parapsilosis assessed as inhibition of fungal growth measured after 48 hrs by CLSI based agar dilution method; details: Lodderomyces parapsilosis
Candida albicans = assay: Antifungal activity against Candida albicans assessed as inhibition of fungal growth measured after 48 hrs by CLSI based agar dilution method
Pichia kudriavzevii [1] = assay: Antifungal activity against Candida krusei assessed as inhibition of fungal growth measured after 48 hrs by CLSI based agar dilution method
Pichia kudriavzevii [2] = assay: Antifungal activity against Candida krusei ATCC 6258 assessed as inhibition of fungal growth measured after 48 hrs by CLSI based agar dilution method
Cryptococcus neoformans = assay: Antifungal activity against Cryptococcus neoformans ATCC 32609 assessed as inhibition of fungal growth measured after 48 hrs by CLSI based agar dilution method

| SMILES | MIC (Candida tropicalis) | MIC (Candida parapsilosis) | MIC (Candida albicans) | MIC (Pichia kudriavzevii [1]) | MIC (Pichia kudriavzevii [2]) | MIC (Cryptococcus neoformans) |
| --- | --- | --- | --- | --- | --- | --- |
| C[C@@H]1[C@H](O)[C@@H](C)/C=C/C=C/C=C/C=C/C=C/C=C/C=C/[C@H](O[C@@H]2O[C@H](C)[C@@H](O)[C@H](NC(=O)CN)[C@@H]2O)C[C@@H]2O[C@](O)(C[C@@H](O)C[C@@H](O)[C@H](O)CC[C@@H](O)C[C@@H](O)CC(=O)O[C@H]1C)C[C@H](O)[C@H]2C(=O)NCCO | 4 µg/mL (≈ 3.91 µM) | 4 µg/mL (≈ 3.91 µM) | 1 µg/mL (≈ 0.976 µM) | 2 µg/mL (≈ 1.95 µM) | 4 µg/mL (≈ 3.91 µM) | 2 µg/mL (≈ 1.95 µM) |
| C[C@@H]1[C@H](O)[C@@H](C)/C=C/C=C/C=C/C=C/C=C/C=C/C=C/[C@H](O[C@@H]2O[C@H](C)[C@@H](O)[C@H](NC(=O)COCCN)[C@@H]2O)C[C@@H]2O[C@](O)(C[C@@H](O)C[C@@H](O)[C@H](O)CC[C@@H](O)C[C@@H](O)CC(=O)O[C@H]1C)C[C@H](O)[C@H]2C(=O)N1CCN(CCO)CC1 | 0.25 µg/mL (≈ 0.22 µM) | 2 µg/mL (≈ 1.76 µM) | 0.5 µg/mL (≈ 0.44 µM) | 2 µg/mL (≈ 1.76 µM) | 16 µg/mL (≈ 14.1 µM) | 0.5 µg/mL (≈ 0.44 µM) |
| C[C@@H]1[C@H](O)[C@@H](C)/C=C/C=C/C=C/C=C/C=C/C=C/C=C/[C@H](O[C@@H]2O[C@H](C)[C@@H](O)[C@H](N)[C@@H]2O)C[C@@H]2O[C@](O)(C[C@@H](O)C[C@@H](O)[C@H](O)CC[C@@H](O)C[C@@H](O)CC(=O)O[C@H]1C)C[C@H](O)[C@H]2C(=O)NNC(=O)c1ccc(Cl)cc1 | 8 µg/mL (≈ 7.43 µM) | 16 µg/mL (≈ 14.9 µM) | 4 µg/mL (≈ 3.72 µM) | 8 µg/mL (≈ 7.43 µM) | 16 µg/mL (≈ 14.9 µM) | 2 µg/mL (≈ 1.86 µM) |
| CNCC(=O)N[C@@H]1[C@H](O)[C@H](O[C@H]2/C=C/C=C/C=C/C=C/C=C/C=C/C=C/[C@H](C)[C@@H](O)[C@@H](C)[C@H](C)OC(=O)C[C@H](O)C[C@H](O)CC[C@@H](O)[C@H](O)C[C@H](O)C[C@]3(O)C[C@H](O)[C@@H](C(=O)N4CCN(CCN(C)C)CC4)[C@H](C2)O3)O[C@H](C)[C@H]1O | 1 µg/mL (≈ 0.882 µM) | 1 µg/mL (≈ 0.882 µM) | 1 µg/mL (≈ 0.882 µM) | 2 µg/mL (≈ 1.76 µM) | 4 µg/mL (≈ 3.53 µM) | 1 µg/mL (≈ 0.882 µM) |
| CNCC(=O)N[C@@H]1[C@H](O)[C@H](O[C@H]2/C=C/C=C/C=C/C=C/C=C/C=C/C=C/[C@H](C)[C@@H](O)[C@@H](C)[C@H](C)OC(=O)C[C@H](O)C[C@H](O)CC[C@@H](O)[C@H](O)C[C@H](O)C[C@]3(O)C[C@H](O)[C@@H](C(=O)N4CCN(CCOC)CC4)[C@H](C2)O3)O[C@H](C)[C@H]1O | 0.5 µg/mL (≈ 0.446 µM) | 4 µg/mL (≈ 3.57 µM) | 0.5 µg/mL (≈ 0.446 µM) | 2 µg/mL (≈ 1.78 µM) | 32 µg/mL (≈ 28.5 µM) | 0.25 µg/mL (≈ 0.223 µM) |
| C[C@@H]1[C@H](O)[C@@H](C)/C=C/C=C/C=C/C=C/C=C/C=C/C=C/[C@H](O[C@@H]2O[C@H](C)[C@@H](O)[C@H](NC(=O)CN)[C@@H]2O)C[C@@H]2O[C@](O)(C[C@@H](O)C[C@@H](O)[C@H](O)CC[C@@H](O)C[C@@H](O)CC(=O)O[C@H]1C)C[C@H](O)[C@H]2C(=O)NCCCN(C)C | 16 µg/mL (≈ 15 µM) | 8 µg/mL (≈ 7.51 µM) | 1 µg/mL (≈ 0.939 µM) | 8 µg/mL (≈ 7.51 µM) | 32 µg/mL (≈ 30 µM) | 2 µg/mL (≈ 1.88 µM) |
| C[C@@H]1[C@H](O)[C@@H](C)/C=C/C=C/C=C/C=C/C=C/C=C/C=C/[C@H](O[C@@H]2O[C@H](C)[C@@H](O)[C@H](NC(=O)CCN)[C@@H]2O)C[C@@H]2O[C@](O)(C[C@@H](O)C[C@@H](O)[C@H](O)CC[C@@H](O)C[C@@H](O)CC(=O)O[C@H]1C)C[C@H](O)[C@H]2C(=O)NCCO | 8 µg/mL (≈ 7.71 µM) | 8 µg/mL (≈ 7.71 µM) | 2 µg/mL (≈ 1.93 µM) | 2 µg/mL (≈ 1.93 µM) | 4 µg/mL (≈ 3.85 µM) | 2 µg/mL (≈ 1.93 µM) |
| CNCC(=O)N[C@@H]1[C@H](O)[C@H](O[C@H]2/C=C/C=C/C=C/C=C/C=C/C=C/C=C/[C@H](C)[C@@H](O)[C@@H](C)[C@H](C)OC(=O)C[C@H](O)C[C@H](O)CC[C@@H](O)[C@H](O)C[C@H](O)C[C@]3(O)C[C@H](O)[C@@H](C(=O)N4CCN(C(=O)c5ccncn5)CC4)[C@H](C2)O3)O[C@H](C)[C@H]1O | 4 µg/mL (≈ 3.42 µM) | 16 µg/mL (≈ 13.7 µM) | 1 µg/mL (≈ 0.855 µM) | 1 µg/mL (≈ 0.855 µM) | 16 µg/mL (≈ 13.7 µM) | 1 µg/mL (≈ 0.855 µM) |
| CC(C)C(=O)NNC(=O)[C@H]1[C@@H]2C[C@@H](O[C@@H]3O[C@H](C)[C@@H](O)[C@H](N)[C@@H]3O)/C=C/C=C/C=C/C=C/C=C/C=C/C=C/[C@H](C)[C@@H](O)[C@@H](C)[C@H](C)OC(=O)C[C@H](O)C[C@H](O)CC[C@@H](O)[C@H](O)C[C@H](O)C[C@](O)(C[C@@H]1O)O2 | 0.5 µg/mL (≈ 0.496 µM) | 1 µg/mL (≈ 0.992 µM) | 0.03 µg/mL (≈ 0.0298 µM) | 0.5 µg/mL (≈ 0.496 µM) | 1 µg/mL (≈ 0.992 µM) | 0.06 µg/mL (≈ 0.0595 µM) |
| CNCCOCC(=O)N[C@@H]1[C@H](O)[C@H](O[C@H]2/C=C/C=C/C=C/C=C/C=C/C=C/C=C/[C@H](C)[C@@H](O)[C@@H](C)[C@H](C)OC(=O)C[C@H](O)C[C@H](O)CC[C@@H](O)[C@H](O)C[C@H](O)C[C@]3(O)C[C@H](O)[C@@H](C(=O)N4CCN(CCO)CC4)[C@H](C2)O3)O[C@H](C)[C@H]1O | 1 µg/mL (≈ 0.869 µM) | 2 µg/mL (≈ 1.74 µM) | 1 µg/mL (≈ 0.869 µM) | 2 µg/mL (≈ 1.74 µM) | 16 µg/mL (≈ 13.9 µM) | 1 µg/mL (≈ 0.869 µM) |
| C[C@@H]1[C@H](O)[C@@H](C)/C=C/C=C/C=C/C=C/C=C/C=C/C=C/[C@H](O[C@@H]2O[C@H](C)[C@@H](O)[C@H](NC(=O)CN)[C@@H]2O)C[C@@H]2O[C@](O)(C[C@@H](O)C[C@@H](O)[C@H](O)CC[C@@H](O)C[C@@H](O)CC(=O)O[C@H]1C)C[C@H](O)[C@H]2C(=O)NCCN(C)C | 2 µg/mL (≈ 1.9 µM) | 1 µg/mL (≈ 0.951 µM) | 1 µg/mL (≈ 0.951 µM) | 1 µg/mL (≈ 0.951 µM) | 16 µg/mL (≈ 15.2 µM) | 0.5 µg/mL (≈ 0.476 µM) |
| CNCC(=O)N[C@@H]1[C@H](O)[C@H](O[C@H]2/C=C/C=C/C=C/C=C/C=C/C=C/C=C/[C@H](C)[C@@H](O)[C@@H](C)[C@H](C)OC(=O)C[C@H](O)C[C@H](O)CC[C@@H](O)[C@H](O)C[C@H](O)C[C@]3(O)C[C@H](O)[C@@H](C(=O)NNC(=O)OC)[C@H](C2)O3)O[C@H](C)[C@H]1O | 1 µg/mL (≈ 0.937 µM) | 4 µg/mL (≈ 3.75 µM) | 0.125 µg/mL (≈ 0.117 µM) | 0.125 µg/mL (≈ 0.117 µM) | 2 µg/mL (≈ 1.87 µM) | 0.5 µg/mL (≈ 0.468 µM) |
| C[C@@H]1[C@H](O)[C@@H](C)/C=C/C=C/C=C/C=C/C=C/C=C/C=C/[C@H](O[C@@H]2O[C@H](C)[C@@H](O)[C@H](NC(=O)CCN)[C@@H]2O)C[C@@H]2O[C@](O)(C[C@@H](O)C[C@@H](O)[C@H](O)CC[C@@H](O)C[C@@H](O)CC(=O)O[C@H]1C)C[C@H](O)[C@H]2C(=O)NCCN(C)C | 0.5 µg/mL (≈ 0.469 µM) | 2 µg/mL (≈ 1.88 µM) | 0.5 µg/mL (≈ 0.469 µM) | 0.5 µg/mL (≈ 0.469 µM) | 16 µg/mL (≈ 15 µM) | 0.125 µg/mL (≈ 0.117 µM) |
| CNCC(=O)N[C@@H]1[C@H](O)[C@H](O[C@H]2/C=C/C=C/C=C/C=C/C=C/C=C/C=C/[C@H](C)[C@@H](O)[C@@H](C)[C@H](C)OC(=O)C[C@H](O)C[C@H](O)CC[C@@H](O)[C@H](O)C[C@H](O)C[C@]3(O)C[C@H](O)[C@@H](C(=O)NCCCN(C)C)[C@H](C2)O3)O[C@H](C)[C@H]1O | 2 µg/mL (≈ 1.85 µM) | 4 µg/mL (≈ 3.71 µM) | 2 µg/mL (≈ 1.85 µM) | 2 µg/mL (≈ 1.85 µM) | 16 µg/mL (≈ 14.8 µM) | 1 µg/mL (≈ 0.926 µM) |
| CCC(=O)NNC(=O)[C@H]1[C@@H]2C[C@@H](O[C@@H]3O[C@H](C)[C@@H](O)[C@H](N)[C@@H]3O)/C=C/C=C/C=C/C=C/C=C/C=C/C=C/[C@H](C)[C@@H](O)[C@@H](C)[C@H](C)OC(=O)C[C@H](O)C[C@H](O)CC[C@@H](O)[C@H](O)C[C@H](O)C[C@](O)(C[C@@H]1O)O2 | 0.5 µg/mL (≈ 0.503 µM) | 1 µg/mL (≈ 1.01 µM) | 0.25 µg/mL (≈ 0.251 µM) | 0.5 µg/mL (≈ 0.503 µM) | 0.5 µg/mL (≈ 0.503 µM) | 0.03 µg/mL (≈ 0.0302 µM) |
| CNCC(=O)N[C@@H]1[C@H](O)[C@H](O[C@H]2/C=C/C=C/C=C/C=C/C=C/C=C/C=C/[C@H](C)[C@@H](O)[C@@H](C)[C@H](C)OC(=O)C[C@H](O)C[C@H](O)CC[C@@H](O)[C@H](O)C[C@H](O)C[C@]3(O)C[C@H](O)[C@@H](C(=O)NNC(C)=O)[C@H](C2)O3)O[C@H](C)[C@H]1O | 4 µg/mL (≈ 3.81 µM) | 2 µg/mL (≈ 1.9 µM) | 0.125 µg/mL (≈ 0.119 µM) | 0.5 µg/mL (≈ 0.476 µM) | 4 µg/mL (≈ 3.81 µM) | 0.125 µg/mL (≈ 0.119 µM) |
| CNCC(=O)N[C@@H]1[C@H](O)[C@H](O[C@H]2/C=C/C=C/C=C/C=C/C=C/C=C/C=C/[C@H](C)[C@@H](O)[C@@H](C)[C@H](C)OC(=O)C[C@H](O)C[C@H](O)CC[C@@H](O)[C@H](O)C[C@H](O)C[C@]3(O)C[C@H](O)[C@@H](C(=O)N4CCN(CCS(C)(=O)=O)CC4)[C@H](C2)O3)O[C@H](C)[C@H]1O | 4 µg/mL (≈ 3.42 µM) | 2 µg/mL (≈ 1.71 µM) | 2 µg/mL (≈ 1.71 µM) | 4 µg/mL (≈ 3.42 µM) | 16 µg/mL (≈ 13.7 µM) | 2 µg/mL (≈ 1.71 µM) |
